Measurements reported in the NIST ThermoML archive (doi:10.1016/j.jct.2016.07.020).

Assay: mn = molality of the nth substance listed, in mol/kg
Details: 101.3 kPa, Liquid, Capillary tube (Ostwald / Ubbelohde) method

O=C1O[C@H]([C@@H](O)CO)C(O)=C1O [L-ascorbic acid] + O
viscosity [mPa·s]
Details	288.15 K	298.15 K	308.15 K	318.15 K
m1 = 0.05	1.163	0.91	0.732	0.605
m1 = 0.15	1.21	0.944	0.759	0.625
m1 = 0.25	1.257	0.979	0.787	0.646
m1 = 0.35	1.305	1.017	0.813	0.669

OC[C@@H](O)[C@H](O)[C@H](O)[C@@H](O)CO [dulcitol] + O
viscosity [mPa·s]
Details	m1 = 0.04	m1 = 0.0603	m1 = 0.0797	m1 = 0.1002	m1 = 0.1196	m1 = 0.14	m1 = 0.1597	m1 = 0.1795
288.15 K	1.161	1.172	1.183	1.191	1.202	1.213	1.221	1.229
298.15 K	0.904	0.912	0.919	0.926	0.933	0.939	0.948	0.953
308.15 K	0.73	0.736	0.741	0.746	0.751	0.756	0.761	0.766
318.15 K	0.602	0.607	0.61	0.614	0.617	0.623	0.626	0.628

CO[C@H]1O[C@H](CO)[C@@H](O)[C@H](O)[C@H]1O [methyl-α-D-glucopyranoside] + O
viscosity [mPa·s]
Details	m1 = 0.0397	m1 = 0.06	m1 = 0.08	m1 = 0.0999	m1 = 0.1191	m1 = 0.1402	m1 = 0.1599	m1 = 0.1801
288.15 K	1.159	1.172	1.183	1.194	1.206	1.218	1.23	1.241
298.15 K	0.906	0.916	0.925	0.931	0.94	0.948	0.956	0.964
308.15 K	0.732	0.739	0.745	0.751	0.757	0.764	0.77	0.777
318.15 K	0.606	0.611	0.616	0.621	0.625	0.631	0.636	0.64

OC[C@@H](O)[C@H](O)[C@@H](O)CO [xylitol] + O
viscosity [mPa·s]
Details	m1 = 0.0399	m1 = 0.0599	m1 = 0.08	m1 = 0.0999	m1 = 0.1196	m1 = 0.1396	m1 = 0.1593	m1 = 0.1801
288.15 K	1.16	1.17	1.179	1.188	1.197	1.206	1.214	1.223
298.15 K	0.905	0.913	0.919	0.926	0.933	0.939	0.947	0.954
308.15 K	0.73	0.736	0.742	0.746	0.751	0.757	0.762	0.766
318.15 K	0.604	0.608	0.612	0.616	0.621	0.625	0.63	0.634
